According to US8410117B2, “Imidazopyrimidine derivatives” (Hoffmann-La Roche Inc., priority 2010, dated 2013):

Target: T1, human PDE10A (Homo sapiens, UniProt Q9Y233)
T1 construct: The human PDE10A full length assay; purchased Enzo Life Science, Lausen, Switzerland SE-534
Test: human PDE10A full length Scintillation Proximity Assay (SPA)
Type: biochemical
Details: 50 nM cGMP and 50 nM [3H]-cGMP, 20 minutes at room temperature; read-out: PDE10A inhibition IC50
Procedure: The following test was carried out in order to determine the activity of the compounds of the present invention. PDE10 activity of the compounds of the present invention was determined using a Scintillation Proximity Assay (SPA)-based method similar to the one previously described (Fawcett, L. et al., Proc Natl Acad Sci USA (2000) 97(7):3702-3707).
The human PDE10A full length assay was performed in 96-well micro titer plates. The reaction mixture of 50 μl contained 20 mM HEPES pH=7.5/10 mM MgCl2/0.05 mg/ml BSA (Sigma cat. #A-7906), 50 nM cGMP (Sigma, cat. #G6129) and 50 nM [^3H]-cGMP (GE Healthcare, cat. #TRK392 S.A. 13.2 Ci/mmol), 3.75 ng/well PDE10A enzyme (Enzo Life Science, Lausen, Switzerland cat #SE-534) with or without a specific test compound. A range of concentrations of the potential inhibitor was used to generate data for calculating the concentration of inhibitor resulting in 50% of the effect (e.g. IC50, the concentration of the competitor inhibiting PDE10A activity by 50%). Non-specific activity was tested without the enzyme. The reaction was initiated by the addition of the substrate solution (cGMP and [^3H]-cGMP) and allowed to progress for 20 minutes at room temperature. The reaction was terminated by adding 25 μl of YSi-SPA scintillation beads (GE Healthcare, cat. #RPNQ0150) in 18 mM zinc sulphate solution (stop reagent). After 1 h under shaking, the plate was centrifuged one minute at 170 g to allow beads to settle. Afterwards, radioactive counts were measured on a Perkin Elmer TopCount Scintillation plate reader.

T1 sequence (Q9Y233 1-779 isoform Q9Y233-1): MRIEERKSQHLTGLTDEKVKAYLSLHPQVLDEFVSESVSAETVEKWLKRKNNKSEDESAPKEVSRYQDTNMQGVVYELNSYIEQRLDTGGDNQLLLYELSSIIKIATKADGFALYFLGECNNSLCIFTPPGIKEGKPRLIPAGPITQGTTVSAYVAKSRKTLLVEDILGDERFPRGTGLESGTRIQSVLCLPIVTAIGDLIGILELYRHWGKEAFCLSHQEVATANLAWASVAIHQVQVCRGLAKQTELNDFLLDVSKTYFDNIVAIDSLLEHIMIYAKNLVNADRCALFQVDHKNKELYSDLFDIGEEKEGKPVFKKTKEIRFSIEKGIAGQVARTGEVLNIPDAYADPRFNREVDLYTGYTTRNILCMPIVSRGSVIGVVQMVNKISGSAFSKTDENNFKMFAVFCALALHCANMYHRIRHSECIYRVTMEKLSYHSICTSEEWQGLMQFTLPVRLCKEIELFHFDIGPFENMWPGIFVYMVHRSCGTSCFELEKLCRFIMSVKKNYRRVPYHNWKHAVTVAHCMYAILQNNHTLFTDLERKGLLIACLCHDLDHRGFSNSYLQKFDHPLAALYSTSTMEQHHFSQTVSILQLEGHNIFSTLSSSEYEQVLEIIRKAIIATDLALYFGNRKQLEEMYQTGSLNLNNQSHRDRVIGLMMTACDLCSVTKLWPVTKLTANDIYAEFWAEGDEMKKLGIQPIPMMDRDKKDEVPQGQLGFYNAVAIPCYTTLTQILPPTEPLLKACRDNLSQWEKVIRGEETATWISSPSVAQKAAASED

IC50 [µM] | SMILES
0.152 | Cn1ncc(C(=O)NCc2ccc(C#N)nc2)c1C(=O)Nc1ccn2cc(-c3ccccc3)nc2n1 [Example 142, N4-((6-cyanopyridin-3-yl)methyl)-1-methyl-N5-(2-phenylimidazo[1,2-a]pyrimidin-7-yl)-1H-pyrazole-4,5-dicarboxamide]
0.004 | Cn1ncc(C(=O)N2CCC2)c1C(=O)Nc1ccn2cc(-c3ccc(Cl)s3)nc2n1 [Example 74, 4-(Azetidine-1-carbonyl)-2-methyl-2H-pyrazole-3-carboxylic acid [2-(5-chloro-thiophen-2-yl)-imidazo[1,2-a]pyrimidin-7-yl]-amide]
0.0173 | Cn1ncc(C(=O)NCCF)c1C(=O)Nc1ccn2cc(-c3ccccc3)nc2n1 [Example 123, N4-(2-fluoroethyl)-1-methyl-N5-(2-phenylimidazo[1,2-a]pyrimidin-7-yl)-1H-pyrazole-4,5-dicarboxamide]
0.0061 | CCN(C)C(=O)c1cnn(C)c1C(=O)Nc1ccn2cc(-c3cccc(OCCF)c3)nc2n1 [Example 89, 2-Methyl-2H-pyrazole-3,4-dicarboxylic acid 4-(ethyl-methyl-amide) 3-({2-[3-(2-fluoro-ethoxy)-phenyl]imidazo[1,2-a]pyrimidin-7-yl}-amide)]
0.0038 | CN(C)C(=O)c1cnn(C)c1C(=O)Nc1ccn2cc(-c3cccc(O)c3)nc2n1 [Example 84, 2-Methyl-2H-pyrazole-3,4-dicarboxylic acid 4-dimethylamide 3-{[2-(3-hydroxy-phenyl)-imidazo[1,2-a]pyrimidin-7-yl]-amide}]
0.097 | Cc1nn(C)c(C(=O)Nc2ccn3cc(-c4ccccc4)nc3n2)c1Cl [Example 3, 4-Chloro-2,5-dimethyl-2H-pyrazole-3-carboxylic acid (2-phenyl-imidazo[1,2-a]pyrimidin-7-yl)-amide]
0.725 | CCCn1ccc(CNC(=O)c2cnn(C)c2C(=O)Nc2ccn3cc(-c4ccccc4)nc3n2)n1 [Example 164, 1-methyl-N5-(2-phenylimidazo[1,2-a]pyrimidin-7-yl)-N4-((1-propyl-1H-pyrazol-3-yl)methyl)-1H-pyrazole-4,5-dicarboxamide]
0.0817 | CN(CCF)C(=O)c1cnn(C)c1C(=O)Nc1ccn2cc(-c3cccc(OCF)c3)nc2n1 [Example 108, 2-Methyl-2H-pyrazole-3,4-dicarboxylic acid 4-[(2-fluoro-ethyl)-methyl-amide]3-{[2-(3-fluoromethoxy-phenyl)-imidazo[1,2-a]pyrimidin-7-yl]-amide}]
0.865 | Cc1nc(CNC(=O)c2cnn(C)c2C(=O)Nc2ccn3cc(-c4ccccc4)nc3n2)no1 [Example 168, 1-methyl-N-4-((5-methyl-1,2,4-oxadiazol-3-yl)methyl)-N5-(2-phenylimidazo[1,2-a]pyrimidin-7-yl)-1H-pyrazole-4,5-dicarboxamide]
0.288 | Cn1ncc(C(=O)NCc2nc(C#N)cs2)c1C(=O)Nc1ccn2cc(-c3ccccc3)nc2n1 [Example 151, N4-((4-cyanothiazol-2-yl)methyl)-1-methyl-N5-(2-phenylimidazo[1,2-a]pyrimidin-7-yl)-1H-pyrazole-4,5-dicarboxamide]
0.0351 | Cn1ncc(C(=O)NCc2ccno2)c1C(=O)Nc1ccn2cc(-c3ccccc3)nc2n1 [Example 131, N4-(isoxazol-5-ylmethyl)-1-methyl-N5-(2-phenylimidazo[1,2-a]pyrimidin-7-yl)-1H-pyrazole-4,5-dicarboxamide]
0.019 | COCCN(C)C(=O)c1cnn(C)c1C(=O)Nc1ccn2cc(-c3cccc(OCF)c3)nc2n1 [Example 99, 2-Methyl-2H-pyrazole-3,4-dicarboxylic acid 3-{[2-(3-fluoromethoxy-phenyl)-imidazo[1,2-a]pyrimidin-7-yl]-amide}-4-[(2-methoxy-ethyl)-methyl-amide]]
0.235 | Cn1ncc(C(=O)NCc2nnn[nH]2)c1C(=O)Nc1ccn2cc(-c3ccccc3)nc2n1 [Example 147, N4-((1H-tetrazol-5-yl)methyl)-1-methyl-N5-(2-phenylimidazo[1,2-a]pyrimidin-7-yl)-1H-pyrazole-4,5-dicarboxamide]
0.032 | Cn1ncc(C(=O)N2CC(O)C2)c1C(=O)Nc1ccn2cc(-c3ccccc3)nc2n1 [Example 36, 4-(3-Hydroxy-azetidine-1-carbonyl)-2-methyl-2H-pyrazole-3-carboxylic acid (2-phenyl-imidazo[1,2-a]pyrimidin-7-yl)-amide]
0.0479 | CC(C)Cn1nc([N+](=O)[O-])cc1C(=O)Nc1ccn2cc(-c3ccccc3)nc2n1 [Example 13, 2-Isobutyl-5-nitro-2H-pyrazole-3-carboxylic acid (2-phenyl-imidazo[1,2-a]pyrimidin-7-yl)-amide]
0.0026 | Cn1ncc(C(=O)NCc2ccn[nH]2)c1C(=O)Nc1ccn2cc(-c3ccccc3)nc2n1 [Example 113, N4-((1H-pyrazol-5-yl)methyl)-1-methyl-N5-(2-phenylimidazo[1,2-a]pyrimidin-7-yl)-1H-pyrazole-4,5-dicarboxamide]
0.0177 | Cc1cnc(CNC(=O)c2cnn(C)c2C(=O)Nc2ccn3cc(-c4ccccc4)nc3n2)s1 [Example 124, 1-methyl-N4-((5-methylthiazol-2-yl)methyl)-N5-(2-phenylimidazo[1,2-a]pyrimidin-7-yl)-1H-pyrazole-4,5-dicarboxamide]
0.089 | CN(CCOCCF)C(=O)c1cnn(C)c1C(=O)Nc1ccn2cc(-c3cccc(OCCF)c3)nc2n1 [Example 109, 2-Methyl-2H-pyrazole-3,4-dicarboxylic acid 4-{[2-(2-fluoro-ethoxy)-ethyl]-methyl-amide}3-({2-[3-(2-fluoro-ethoxy)-phenyl]-imidazo[1,2-a]pyrimidin-7-yl}-amide)]
0.624 | Cn1ncc(C(=O)NCc2ccccc2)c1C(=O)Nc1ccn2cc(-c3ccccc3)nc2n1 [Example 162, N4-benzyl-1-methyl-N5-(2-phenylimidazo[1,2-a]pyrimidin-7-yl)-1H-pyrazole-4,5-dicarboxamide]
0.314 | O=C(Nc1ccn2cc(-c3ccccc3)nc2n1)c1cccc(Cl)n1 [Example 21, 6-Chloro-pyridine-2-carboxylic acid (2-phenyl-imidazo[1,2-a]pyrimidin-7-yl)-amide]
0.0332 | CN(CCC#N)C(=O)c1cnn(C)c1C(=O)Nc1ccn2cc(-c3ccccc3)nc2n1 [Example 70, 2-Methyl-2H-pyrazole-3,4-dicarboxylic acid 4-[(2-cyano-ethyl)-methyl-amide]3-[(2-phenyl-imidazo[1,2-a]pyrimidin-7-yl)-amide]]
0.0997 | CN(Cc1ccc(Br)cn1)C(=O)c1cnn(C)c1C(=O)Nc1ccn2cc(-c3ccccc3)nc2n1 [Example 136, N4-((5-bromopyridin-2-yl)methyl)-N4,1-dimethyl-N5-(2-phenylimidazo[1,2-a]pyrimidin-7-yl)-1H-pyrazole-4,5-dicarboxamide]
0.0486 | Cn1ncc(C(=O)N2CC3(COC3)C2)c1C(=O)Nc1ccn2cc(-c3ccccc3)nc2n1 [Example 132, 1-methyl-N-(2-phenylimidazo[1,2-a]pyrimidin-7-yl)-4-(2-oxa-6-azaspiro[3.3]heptane-6-carbonyl)-1H-pyrazole-5-carboxamide]
0.0236 | CN(CCO)C(=O)c1cnn(C)c1C(=O)Nc1ccn2cc(-c3ccccc3)nc2n1 [Example 53, 2-Methyl-2H-pyrazole-3,4-dicarboxylic acid 4-[(2-hydroxy-ethyl)-methyl-amide]3-[(2-phenyl-imidazo[1,2-a]pyrimidin-7-yl)-amide]]
0.0864 | COCCCNC(=O)c1cnn(C)c1C(=O)Nc1ccn2cc(-c3ccccc3)nc2n1 [Example 39, 2-Methyl-2H-pyrazole-3,4-dicarboxylic acid 4-[(3-methoxy-propyl)-amide]3-[(2-phenyl-imidazo[1,2-a]pyrimidin-7-yl)-amide]]
0.0019 | CCN(C)C(=O)c1cnn(C)c1C(=O)Nc1ccn2cc(-c3ccccc3)nc2n1 [Example 49, 2-Methyl-2H-pyrazole-3,4-dicarboxylic acid 4-(ethyl-methyl-amide) 3-[(2-phenyl-imidazo[1,2-a]pyrimidin-7-yl)-amide]]
0.026 | Cn1ncc(C(=O)N2CCC2)c1C(=O)Nc1ccn2cc(-c3cccc(-c4ccccc4)c3)nc2n1 [Example 128, 4-(azetidine-1-carbonyl)-N-(2-(biphenyl-3-yl)imidazo[1,2-a]pyrimidin-7-yl)-1-methyl-1H-pyrazole-5-carboxamide]
0.0188 | CC(C)Cn1ncc(Cl)c1C(=O)Nc1ccn2cc(-c3ccccc3)nc2n1 [Example 12, 4-Chloro-2-isobutyl-2H-pyrazole-3-carboxylic acid (2-phenyl-imidazo[1,2-a]pyrimidin-7-yl)-amide]
0.748 | CCn1nc([N+](=O)[O-])cc1C(=O)Nc1ccn2cc(-c3ccccc3)nc2n1 [Example 15, 2-Ethyl-5-nitro-2H-pyrazole-3-carboxylic acid (2-phenyl-imidazo[1,2-a]pyrimidin-7-yl)-amide]
